pIC50: −log10 of the molar value. Like-named read-outs stand apart in the source and are kept apart here.
What was measured:
A3G [1] = type: cell-based, human; details: for effect on A3G protein levels: absence of redoxal treatment
[2] = tested on: VSV-G pseudotyped NL4-3GFPΔEnv viruses; type: cell-based, HIV-1
Vif-Cul5 interaction = Vif-Cul5 interaction (Human immunodeficiency virus type 1 group M subtype B, UniProt P12504); assay: Co-immunoprecipitation of Vif and Cul5 from 293T cells; type: cell-based; details: 1250 nM, 40 h
Sequence of Vif-Cul5 interaction (P12504 whole entry): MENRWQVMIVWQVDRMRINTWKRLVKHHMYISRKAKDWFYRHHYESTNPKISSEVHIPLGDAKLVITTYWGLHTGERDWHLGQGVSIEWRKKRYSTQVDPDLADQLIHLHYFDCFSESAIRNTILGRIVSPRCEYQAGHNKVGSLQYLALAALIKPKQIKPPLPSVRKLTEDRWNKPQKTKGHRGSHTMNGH

Vif [3] = assay: Vif protein stability in transfected 293T cells, CHX time course; type: cell-based, HIV-1; details: 1250 nM 36 h, then CHX
[4] = tested on: VSV-G pseudotyped NL4-3GFPΔEnv viruses; type: cell-based, HIV-1; remark: listed apart in the source
Vif [5] = assay: Western blot of Vif in HIV-1 infected CEM cell lysates; details: infected CEM cells, 1250 nM
HIV-1 91US001 = HIV-1 91US001 replication in PBMCs; type: cell-based; details: HIV-1 isolate 91US001 in PBMCs, 7 days, RT assay
HIV-1 89BZ167 = HIV-1 89BZ167 replication in PBMCs; type: cell-based; details: HIV-1 isolate 89BZ167 in PBMCs, 7 days, RT assay
A3G [6] = details: infected CEM cells, 1250 nM, 6 days post infection
Vif-CBFβ interaction = Vif-CBFβ interaction (Human immunodeficiency virus type 1 group M subtype B, UniProt P12504); type: cell-based; details: unpublished preliminary co-immunoprecipitation experiments
Sequence of Vif-CBFβ interaction (P12504 whole entry): as above

HIV-1NL4-3 [7] = assay: HIV-1NL4-3 spreading infection in CEM-SS cells; type: cell-based; details: CEM-SS cells (very low A3G); 312.5, 625, 1250 nM
HIV-1NL4-3 [8] = assay: HIV-1NL4-3 spreading infection in CEM cells; type: cell-based; details: CEM cells (high A3G); 312.5, 625, 1250 nM; 3, 6, 9 days
SupT1 T cells = assay: Cytotoxicity in SupT1 T cells; details: concentrations greater than 125 nM
HIV-1Ba-L = assay: HIV-1 Ba-L replication in PBMCs; type: cell-based; details: Human immunodeficiency virus 1, PBMC, 168 h
H9 cells = assay: Cytotoxicity in H9 T cells; details: concentrations greater than 125 nM
HIV-1NL4-3 [9] = assay: HIV-1NL4-3 replication in H9; type: cell-based; details: H9 cells expressing A3G, 62.5 and 125 nM
HIV-1NL4-3 [10] = assay: HIV-1NL4-3 replication in SupT1; type: cell-based; details: SupT1 T cells lacking A3G, 62.5 and 125 nM

Q: How did the “effect on A3G protein levels” value (A3G [1]) turn out when O=C(O)c1cc(=O)[nH]c(=O)[nH]1 [orotate] was run?
A: no significant effect

Q: For COc1cc(-c2ccc(Nc3ccccc3C(=O)O)c(OC)c2)ccc1Nc1ccccc1C(=O)O [redoxal], which decrease in infectivity [2] is on record?
A: approximately 50%

Q: And the “effect on Vif-Cul5 interaction” value (Vif-Cul5 interaction)?
A: no effect

Q: And the A3G protein levels (A3G [1])?
A: increased

Q: And the “steady-state levels of A3G protein in CHX time course” value (A3G [1]; 293T cells with A3G-3xHA and pNL4-3GFPΔEnv, 1250 nM 36 h, then CHX 4 h)?
A: stabilized

Q: And the “increase of A3G protein levels” value (A3G [1]; virus producer 293T cells expressing HIV-1 Vif, 1250 nM)?
A: approximately 50%

Q: What about the “effect on Vif protein stability” value (Vif [3]) of the same compound?
A: no significant effect

Q: And the virus production [4]?
A: inhibited virus production

Q: And the Vif protein levels (Vif [5])?
A: reduced Vif protein levels

Q: And the pIC50 (HIV-1 91US001)?
A: 5.76

Q: What about the pIC50 (HIV-1 89BZ167) of the same compound?
A: 6.23

Q: And the A3G protein levels (A3G [6])?
A: modest increase

Q: And the “effect on Vif-CBFβ interaction” value (Vif-CBFβ interaction)?
A: did not disrupt

Q: What about the “inhibition of viral replication” value (HIV-1NL4-3 [7]) of the same compound?
A: not CEM-SS cells

Q: And the “inhibition of viral replication” value (HIV-1NL4-3 [8])?
A: inhibited viral replication in a dose-dependent manner

Q: Which cytotoxicity (SupT1 T cells) does the source give for COC(=O)c1ccc(O)c2nc3c(C=O)c(O)cc(O)c3nc12 [lomofungin] here?
A: significant cytotoxicity

Q: What about the pIC50 (HIV-1Ba-L) of the same compound?
A: 7.15

Q: And the cytotoxicity (H9 cells)?
A: significant cytotoxicity

Q: And the antiviral activity (HIV-1NL4-3 [9])?
A: strong antiviral activity

Q: What about the antiviral activity (HIV-1NL4-3 [10]) of the same compound?
A: not in SupT1 T cells

Q: How did the “effect on A3G protein levels” value (A3G [1]) turn out when O=c1ccn([C@@H]2O[C@H](CO)[C@@H](O)[C@H]2O)c(=O)[nH]1 [uridine] was run?
A: no significant effect

— PMC4567410 (Virology, 2015)
